Data taken from US20040229772A1, “Peptides responsive to antibodies against consensus peptide of the CS4-CFA/I family proteins” (priority 1996, published 2004).
No end group written: not given here.

Columns and labels:
[1] = system: whole bacteria, CF CFA/1; assay: Agglutination of whole bacteria by serum of immunized rabbits; type: cell-based, E. coli; conditions: two rabbits immunized per preparation
[2] = system: whole bacteria, CF CS2; assay: as above; type: cell-based, E. coli; conditions: two rabbits immunized per preparation
[3] = system: whole bacteria, CF 0166; assay: as above; type: cell-based, E. coli; conditions: two rabbits immunized per preparation
[4] = system: 0166; assay: Western blot of immune serum with denatured protein; type: binding, E. coli; conditions: 4 strong reaction, rabbit serum
Method: (§1) Rabbits were bled, then immunized on day 0 with a composition containing 280 μg peptide/BSA conjugate in Freund's complete adjuvant. On day 21, the animals were boosted with 140 μg peptide/BSA conjugate in Freund's incomplete adjuvant. Blood was drawn on day 32. The interaction of antibodies raised against the specific antigens of the denatured proteins of the various strains was studied by comparing interaction of serum from the animals obtained on day 0 with response on to serum from the animals obtained on day 32 by Western blot. In all instances, the Western blot was negative for reaction with serum obtained on day 0. The Western blot data on interaction of immune serum collected on day 32 with the denatured proteins is given below with 0 being no reaction and 4 being a strong reaction:
(§2) Rabbits were given a composition containing 400 μg peptide of the formula: […] (SEQ ID NO:1) in complete Freund's adjuvant. The response was evaluated as in Example 2:
(§3) The same study was done comparing antibodies raised to denatured proteins of PCF 0166.
(§4) Effect of antibody raised to whole CS2 protein was studied in the manner of example 5.

[5] = system: CS4; assay: as above; type: binding, E. coli; conditions: 4 strong reaction, rabbit serum
Method: as §1, §2, §3, §4

[6] = system: CS17; assay: as above; type: binding, E. coli; conditions: 4 strong reaction, rabbit serum
Method: as §1, §2, §3, §4

[7] = system: CS1; assay: as above; type: binding, E. coli; conditions: 4 strong reaction, rabbit serum
Method: as §1, §2, §3, §4

[8] = system: whole bacteria, CF CS4; assay: Agglutination of whole bacteria by serum of immunized rabbits; type: cell-based, E. coli; conditions: two rabbits immunized per preparation
[9] = system: whole bacteria, CF CS1; assay: as above; type: cell-based, E. coli; conditions: two rabbits immunized per preparation
[10] = system: whole bacteria, CF CS17; assay: as above; type: cell-based, E. coli; conditions: two rabbits immunized per preparation
[11] = system: CS2; assay: Western blot of immune serum with denatured protein; type: binding, E. coli; conditions: 4 strong reaction, rabbit serum
Method: as §1, §2, §3, §4

[12] = system: CFA/I; assay: as above; type: binding, E. coli; conditions: 4 strong reaction, rabbit serum
Method: as §1, §2, §3, §4

| Substance | agglutination of whole bacteria by serum [1] | agglutination of whole bacteria by serum [2] | agglutination of whole bacteria by serum [3] | Western blot reaction of immune serum with denatured protein ([4]; titer 1:50, 0 no reaction) | Western blot reaction of immune serum with denatured protein ([4]; titer 1:500, 0 no reaction) | Western blot reaction of immune serum with denatured protein ([5]; titer 1:50, 0 no reaction) | Western blot reaction of immune serum with denatured protein ([5]; titer 1:500, 0 no reaction) | Western blot reaction of immune serum with denatured protein ([5]; titer 1:5000, 0 no reaction) | Western blot reaction of immune serum with denatured protein ([5]; titer 1:50000, 0 no reaction) | Western blot reaction of immune serum with denatured protein ([6]; titer 1:50, 0 no reaction) | Western blot reaction of immune serum with denatured protein ([6]; titer 1:500, 0 no reaction) | Western blot reaction of immune serum with denatured protein ([6]; titer 1:5000, 0 no reaction) | Western blot reaction of immune serum with denatured protein ([6]; titer 1:50000, 0 no reaction) | Western blot reaction of immune serum with denatured protein ([7]; titer 1:50, 0 no reaction) | Western blot reaction of immune serum with denatured protein ([7]; titer 1:500, 0 no reaction) | Western blot reaction of immune serum with denatured protein ([7]; titer 1:5000, 0 no reaction) | Western blot reaction of immune serum with denatured protein ([7]; titer 1:50000, 0 no reaction) | agglutination of whole bacteria by serum [8] | agglutination of whole bacteria by serum [9] | agglutination of whole bacteria by serum [10] | also measured |
| --- | --- | --- | --- | --- | --- | --- | --- | --- | --- | --- | --- | --- | --- | --- | --- | --- | --- | --- | --- | --- | --- |
| VEKNITVTASVDPTIDLLQADGSALPSAVALTYSPA (listed as Escherichia coli) [SEQ ID NO:1, 36 amino acid consensus peptide of the CS4-CFA/I family] | 0/2 | 0/2 | 0/2 | 4 | 2 | 2 | 0 | 0 | 0 | 2 | 0 | 0 | 0 | 4 | 4 | 2 | 1 | 0/2 | 0/2 | 0/2 | – |
| peptide/BSA conjugate: consensus peptide with added terminal cysteine (SEQ ID NO:37) conjugated to iodoacetylated bovine serum albumin (CVEKNITVTASVDPTIDLLQADGSALPSAVALTYSPA; also: conjugated via added terminal Cys to iodoacetylated BSA; listed as Escherichia coli) | 1/2 | 2/2 | 1/2 | 4 | 1 | 4 | 4 | 3 | 2 | 4 | 3 | 2 | 0.5 | 4 | 4 | 4 | 4 | 0/2 | 1/2 | 0/2 | Western blot reaction of immune serum with denatured protein ([11]; titer 1:50, 0 no reaction): 4; Western blot reaction of immune serum with denatured protein ([11]; titer 1:500, 0 no reaction): 4; Western blot reaction of immune serum with denatured protein ([11]; titer 1:5000, 0 no reaction): 4; Western blot reaction of immune serum with denatured protein ([4]; titer 1:5000, 0 no reaction): 3; Western blot reaction of immune serum with denatured protein ([12]; titer 1:50, 0 no reaction): 4; Western blot reaction of immune serum with denatured protein ([12]; titer 1:500, 0 no reaction): 3; Western blot reaction of immune serum with denatured protein ([12]; titer 1:5000, 0 no reaction): 2 |
